Kd and IC50 data for eight compounds are collected here from ChEMBL document CHEMBL3217619, “Design and synthesis of trans-2-substituted-cyclopropane-1-carboxylic acids as the first non-natural small molecule inhibitors of O-acetylserine sulfhydrylase” (Medchemcomm, 2012).

Assay [1] in a line: Binding affinity to Haemophilus influenzae OASS-A expressed in Escherichia coli assessed as dissociation constant by fluorometric analysis.
Assay [2] is described as follows: Inhibition of Haemophilus influenzae OASS-A expressed in Escherichia coli using OAS/TNB as substrate by spectrophotometric analysis.
Assay [3] can be described thus: Competitive inhibition of Haemophilus influenzae OASS-A expressed in Escherichia coli using OAS/TNB as substrate by ping-pong analysis.
Assay [4] in a line: Binding affinity to Haemophilus influenzae OASS-A expressed in Escherichia coli using OAS/TNB as substrate assessed as dissociation constant.

Take `CCOC(=O)[C@H]1C[C@@H]1C(=O)O` (racemic): in assay [1], the Kd worked out at 760 µM. Regarding `CCOC(=O)[C@H]1C[C@H]1C(=O)O` (racemic), the dissociation constant Kd in assay [1] came out at 4700 µM. The same measure, in the same setting: the result for `CC(C)OC(=O)[C@H]1C[C@@H]1C(=O)O` (racemic) reads 513 µM; that for `CC(C)COC(=O)[C@H]1C[C@@H]1C(=O)O` (racemic), 950 µM; that for `CCOC[C@H]1C[C@@H]1C(=O)O` (racemic), 5.3 µM.

As to `CCCOC[C@H]1C[C@@H]1C(=O)O` (racemic), the dissociation constant (Kd) in assay [1] came out at 6.5 µM. As for `C/C=C/[C@H]1C[C@@H]1C(=O)O` (racemic), the values for the IC50 in assay [2] and in assay [3] were 700 µM and 600 µM, respectively. The Kd was 1.46 µM in assay [1] and 200 µM in assay [4]. With `CC/C=C/[C@H]1C[C@@H]1C(=O)O` (racemic), in assay [1], the dissociation constant (Kd) turned out to be 21.5 µM.
